According to article PMC10924921, “Mi-2β promotes immune evasion in melanoma by activating EZH2 methylation” (Nature Communications, 2024):

Columns and labels:
Assay in all cases: biochemical
Parameters in all cases: KINOMEscan active-site competition binding panel (468 kinase assays), per cent of control at 1000 nM
Conditions in all cases: KINOMEscan per cent of control (binding competition); read-out: Percent Control
[1] = target: ALK(C1156Y) (Homo sapiens, UniProt Q9UM73, C1156Y)
Text: (§1) Figure S7 / Percent Control

[2] = target: AURKC (Homo sapiens, UniProt Q9UQB9)
Text: as §1

[3] = target: ULK3 (Homo sapiens, UniProt Q6PHR2)
Text: as §1

[4] = target: T1, ABL1(E255K)-phosphorylated (Homo sapiens, UniProt P00519, E255K)
T1 construct: phosphorylated
Text: as §1

[5] = target: SRPK2 (Homo sapiens, UniProt P78362)
Text: as §1

[6] = target: RET(V804M) (Homo sapiens, UniProt P07949, V804M)
Text: as §1

[7] = target: GRK1 (Homo sapiens, UniProt Q15835)
Text: as §1

[8] = target: DDR1 (Homo sapiens, UniProt Q08345)
Text: as §1

[9] = target: PIK3C2G (Homo sapiens, UniProt O75747)
Text: as §1

[10] = target: TNNI3K (Homo sapiens, UniProt Q59H18)
Text: as §1

[11] = target: T2, DRAK1 (Homo sapiens, UniProt Q9UEE5)
T2 construct: gene STK17A
Text: as §1

[12] = target: T3, RSK3(Kin.Dom.1-N-terminal) (Homo sapiens, UniProt Q15349)
T3 construct: gene RPS6KA2; Kin.Dom.1-N-terminal
Text: as §1

[13] = target: LATS2 (Homo sapiens, UniProt Q9NRM7)
Text: as §1

[14] = target: T4, MLCK (Homo sapiens, UniProt Q32MK0)
T4 construct: gene MYLK3
Text: as §1

[15] = target: T5, TIE2 (Homo sapiens, UniProt Q02763)
T5 construct: gene TEK
Text: as §1

[16] = target: PIK3CA(E545A) (Homo sapiens, UniProt P42336, E545A)
Text: as §1

[17] = target: T6, ABL1(T315I)-nonphosphorylated (Homo sapiens, UniProt P00519, T315I)
T6 construct: nonphosphorylated
Text: as §1

[18] = target: T7, CDK11 (Homo sapiens, UniProt Q9BWU1)
T7 construct: gene CDK19
Text: as §1

[19] = target: ULK1 (Homo sapiens, UniProt O75385)
Text: as §1

[20] = target: FGR (Homo sapiens, UniProt P09769)
Text: as §1

[21] = target: TGFBR2 (Homo sapiens, UniProt P37173)
Text: as §1

[22] = target: MARK3 (Homo sapiens, UniProt P27448)
Text: as §1

[23] = target: EPHB3 (Homo sapiens, UniProt P54753)
Text: as §1

[24] = target: PIK3CA(H1047L) (Homo sapiens, UniProt P42336, H1047L)
Text: as §1

Sequence of GRK1 (Q15835 whole entry): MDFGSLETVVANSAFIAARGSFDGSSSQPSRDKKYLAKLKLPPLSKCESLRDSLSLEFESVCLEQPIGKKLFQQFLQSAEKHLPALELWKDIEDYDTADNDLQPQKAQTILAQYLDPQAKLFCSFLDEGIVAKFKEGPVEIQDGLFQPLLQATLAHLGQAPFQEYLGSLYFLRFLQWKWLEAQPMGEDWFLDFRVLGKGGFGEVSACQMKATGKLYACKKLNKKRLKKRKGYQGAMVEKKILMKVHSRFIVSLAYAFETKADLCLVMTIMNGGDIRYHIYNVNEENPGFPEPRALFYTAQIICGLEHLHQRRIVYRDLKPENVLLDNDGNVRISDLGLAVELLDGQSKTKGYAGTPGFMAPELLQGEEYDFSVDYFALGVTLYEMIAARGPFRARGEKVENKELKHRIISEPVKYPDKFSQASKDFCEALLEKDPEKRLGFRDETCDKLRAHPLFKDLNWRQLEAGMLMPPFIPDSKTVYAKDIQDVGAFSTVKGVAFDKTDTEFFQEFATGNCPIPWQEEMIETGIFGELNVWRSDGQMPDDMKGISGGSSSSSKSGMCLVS
Sequence of ULK3 (Q6PHR2 whole entry): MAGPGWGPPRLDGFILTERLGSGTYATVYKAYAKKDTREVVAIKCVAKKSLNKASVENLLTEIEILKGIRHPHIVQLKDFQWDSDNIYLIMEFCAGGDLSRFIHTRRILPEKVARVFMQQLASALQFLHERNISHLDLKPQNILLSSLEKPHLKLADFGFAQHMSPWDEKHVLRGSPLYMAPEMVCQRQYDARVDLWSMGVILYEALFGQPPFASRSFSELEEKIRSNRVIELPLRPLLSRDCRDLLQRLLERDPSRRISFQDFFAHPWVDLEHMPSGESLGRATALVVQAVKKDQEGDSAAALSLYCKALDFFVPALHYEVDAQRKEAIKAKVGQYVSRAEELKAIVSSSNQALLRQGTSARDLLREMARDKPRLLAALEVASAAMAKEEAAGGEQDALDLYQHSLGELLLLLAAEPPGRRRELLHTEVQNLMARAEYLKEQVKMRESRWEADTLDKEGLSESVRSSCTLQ
T7 sequence (Q9BWU1 whole entry): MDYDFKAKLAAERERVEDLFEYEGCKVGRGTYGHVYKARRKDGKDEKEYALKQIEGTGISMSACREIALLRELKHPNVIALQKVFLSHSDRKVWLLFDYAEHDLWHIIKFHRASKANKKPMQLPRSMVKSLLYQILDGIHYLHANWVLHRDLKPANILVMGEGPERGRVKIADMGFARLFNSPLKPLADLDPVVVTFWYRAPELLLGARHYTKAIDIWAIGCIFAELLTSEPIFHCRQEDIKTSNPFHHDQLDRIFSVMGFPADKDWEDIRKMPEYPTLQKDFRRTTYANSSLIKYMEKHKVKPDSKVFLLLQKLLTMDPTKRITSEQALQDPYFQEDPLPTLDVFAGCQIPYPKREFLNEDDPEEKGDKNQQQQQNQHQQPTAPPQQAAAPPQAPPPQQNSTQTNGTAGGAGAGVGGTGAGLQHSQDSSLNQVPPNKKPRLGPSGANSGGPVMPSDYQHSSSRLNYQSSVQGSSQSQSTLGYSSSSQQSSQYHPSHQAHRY
Sequence of ULK1 (O75385 whole entry): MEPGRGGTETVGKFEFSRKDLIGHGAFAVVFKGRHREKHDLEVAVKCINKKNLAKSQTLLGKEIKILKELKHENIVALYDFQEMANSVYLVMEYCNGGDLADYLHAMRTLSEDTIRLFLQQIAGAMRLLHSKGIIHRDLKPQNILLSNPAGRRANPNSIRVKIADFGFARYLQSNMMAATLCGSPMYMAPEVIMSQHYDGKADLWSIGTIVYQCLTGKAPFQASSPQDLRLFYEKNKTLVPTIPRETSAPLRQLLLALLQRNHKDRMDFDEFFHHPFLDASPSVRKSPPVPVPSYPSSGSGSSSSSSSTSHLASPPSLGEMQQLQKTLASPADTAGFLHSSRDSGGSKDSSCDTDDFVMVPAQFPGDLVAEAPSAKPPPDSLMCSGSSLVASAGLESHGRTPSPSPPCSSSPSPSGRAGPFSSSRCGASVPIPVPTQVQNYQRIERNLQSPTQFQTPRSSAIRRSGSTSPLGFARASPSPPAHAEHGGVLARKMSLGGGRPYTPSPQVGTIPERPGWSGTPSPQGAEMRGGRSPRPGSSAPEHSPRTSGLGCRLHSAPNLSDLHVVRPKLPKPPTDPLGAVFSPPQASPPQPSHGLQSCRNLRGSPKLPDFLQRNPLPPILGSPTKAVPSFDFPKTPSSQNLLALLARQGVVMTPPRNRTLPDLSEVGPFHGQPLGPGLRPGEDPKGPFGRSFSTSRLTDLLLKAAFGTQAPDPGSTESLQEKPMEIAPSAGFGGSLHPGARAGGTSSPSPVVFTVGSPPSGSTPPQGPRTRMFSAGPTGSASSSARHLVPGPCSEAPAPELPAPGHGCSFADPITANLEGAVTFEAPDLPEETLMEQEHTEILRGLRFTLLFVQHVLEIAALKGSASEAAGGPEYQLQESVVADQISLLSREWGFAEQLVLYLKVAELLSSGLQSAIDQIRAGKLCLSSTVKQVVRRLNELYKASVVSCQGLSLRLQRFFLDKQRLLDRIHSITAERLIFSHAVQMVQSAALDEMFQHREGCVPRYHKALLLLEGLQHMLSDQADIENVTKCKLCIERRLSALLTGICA
Sequence of AURKC (Q9UQB9 whole entry): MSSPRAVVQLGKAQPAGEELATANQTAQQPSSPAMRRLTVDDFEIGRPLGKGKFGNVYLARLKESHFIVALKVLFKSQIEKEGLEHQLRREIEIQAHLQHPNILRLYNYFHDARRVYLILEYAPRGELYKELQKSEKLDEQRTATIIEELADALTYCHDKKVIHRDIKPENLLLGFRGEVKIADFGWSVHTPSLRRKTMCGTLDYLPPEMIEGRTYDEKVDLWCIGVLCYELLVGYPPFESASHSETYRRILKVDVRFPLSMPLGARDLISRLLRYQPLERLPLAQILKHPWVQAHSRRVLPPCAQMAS
Sequence of ALK(C1156Y) (Q9UM73 whole entry C1156Y): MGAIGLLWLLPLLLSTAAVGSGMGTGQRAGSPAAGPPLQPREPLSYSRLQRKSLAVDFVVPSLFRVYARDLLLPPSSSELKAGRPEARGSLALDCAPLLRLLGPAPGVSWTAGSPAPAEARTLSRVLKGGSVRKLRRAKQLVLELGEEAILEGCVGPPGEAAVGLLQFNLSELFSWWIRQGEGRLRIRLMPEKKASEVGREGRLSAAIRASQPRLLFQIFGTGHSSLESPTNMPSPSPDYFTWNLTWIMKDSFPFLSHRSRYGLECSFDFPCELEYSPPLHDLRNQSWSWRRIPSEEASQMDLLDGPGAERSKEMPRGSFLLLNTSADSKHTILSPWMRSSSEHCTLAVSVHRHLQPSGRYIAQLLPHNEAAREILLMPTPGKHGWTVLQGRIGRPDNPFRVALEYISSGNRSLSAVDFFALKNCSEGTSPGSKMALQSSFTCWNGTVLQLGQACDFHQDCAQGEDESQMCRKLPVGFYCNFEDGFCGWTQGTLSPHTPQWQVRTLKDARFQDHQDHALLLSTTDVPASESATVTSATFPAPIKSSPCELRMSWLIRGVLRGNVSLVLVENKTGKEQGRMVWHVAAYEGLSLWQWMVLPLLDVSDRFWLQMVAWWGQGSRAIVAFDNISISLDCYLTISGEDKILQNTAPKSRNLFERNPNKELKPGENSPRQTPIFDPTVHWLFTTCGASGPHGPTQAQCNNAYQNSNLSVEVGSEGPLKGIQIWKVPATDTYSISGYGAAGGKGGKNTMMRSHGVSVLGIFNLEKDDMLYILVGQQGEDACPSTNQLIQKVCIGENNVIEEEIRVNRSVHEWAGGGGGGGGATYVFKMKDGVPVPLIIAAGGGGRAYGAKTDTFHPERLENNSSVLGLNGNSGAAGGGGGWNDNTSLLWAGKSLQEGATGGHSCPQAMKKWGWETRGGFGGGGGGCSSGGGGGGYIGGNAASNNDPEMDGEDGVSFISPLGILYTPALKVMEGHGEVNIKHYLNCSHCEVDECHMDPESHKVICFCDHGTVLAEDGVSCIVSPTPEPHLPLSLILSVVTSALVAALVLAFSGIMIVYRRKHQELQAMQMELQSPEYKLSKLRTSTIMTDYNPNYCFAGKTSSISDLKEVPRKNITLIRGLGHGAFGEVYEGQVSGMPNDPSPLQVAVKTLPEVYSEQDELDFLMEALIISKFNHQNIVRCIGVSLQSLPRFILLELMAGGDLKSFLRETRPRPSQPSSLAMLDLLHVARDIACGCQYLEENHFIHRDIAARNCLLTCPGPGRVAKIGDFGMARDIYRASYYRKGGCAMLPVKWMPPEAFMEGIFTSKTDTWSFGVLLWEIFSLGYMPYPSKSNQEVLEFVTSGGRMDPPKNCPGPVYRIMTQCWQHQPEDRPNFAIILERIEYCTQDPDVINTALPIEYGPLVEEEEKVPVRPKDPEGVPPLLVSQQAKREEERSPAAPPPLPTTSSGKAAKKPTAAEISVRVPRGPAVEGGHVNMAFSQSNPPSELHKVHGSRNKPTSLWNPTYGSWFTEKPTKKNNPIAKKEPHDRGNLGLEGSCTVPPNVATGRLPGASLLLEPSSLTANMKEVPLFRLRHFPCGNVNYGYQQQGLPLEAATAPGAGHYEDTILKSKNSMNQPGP
T2 sequence (Q9UEE5 whole entry): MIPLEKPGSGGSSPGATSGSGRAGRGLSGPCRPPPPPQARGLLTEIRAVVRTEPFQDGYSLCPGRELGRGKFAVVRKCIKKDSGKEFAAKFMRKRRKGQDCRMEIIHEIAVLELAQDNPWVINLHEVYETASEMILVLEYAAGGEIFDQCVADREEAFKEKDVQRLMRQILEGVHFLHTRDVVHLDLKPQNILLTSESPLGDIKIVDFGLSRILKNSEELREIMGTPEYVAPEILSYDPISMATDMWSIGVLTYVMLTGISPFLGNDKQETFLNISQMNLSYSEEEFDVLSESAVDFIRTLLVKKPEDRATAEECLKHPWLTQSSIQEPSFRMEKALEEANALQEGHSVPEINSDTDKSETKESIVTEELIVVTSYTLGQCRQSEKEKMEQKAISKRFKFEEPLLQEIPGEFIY

Cn1c(=O)[nH]c2ccc(-c3cccc(C(=O)NC4CCn5ccnc5C4)c3)cc21 (stereo not drawn) [Z36-MP5]
remaining binding at 1 µM [1]: 92% | remaining binding at 1 µM [2]: 100% | remaining binding at 1 µM [3]: 71% | remaining binding at 1 µM [4]: 79% | remaining binding at 1 µM [5]: 63% | remaining binding at 1 µM [6]: 36% | remaining binding at 1 µM [7]: 29% | remaining binding at 1 µM [8]: 88% | remaining binding at 1 µM [9]: 100% | remaining binding at 1 µM [10]: 96% | remaining binding at 1 µM [11]: 96% | remaining binding at 1 µM [12]: 93% | remaining binding at 1 µM [13]: 95% | remaining binding at 1 µM [14]: 91% | remaining binding at 1 µM [15]: 58% | remaining binding at 1 µM [16]: 89% | remaining binding at 1 µM [17]: 56% | remaining binding at 1 µM [18]: 82% | remaining binding at 1 µM [19]: 51% | remaining binding at 1 µM [20]: 85% | remaining binding at 1 µM [21]: 94% | remaining binding at 1 µM [22]: 100% | remaining binding at 1 µM [23]: 78% | remaining binding at 1 µM [24]: 90%
